Measurements: US5073549A, “BU-4164E - A and B, prolyl endopeptidase inhibitors and their methods of use” (Bristol-Myers Squibb Company, priority 1990, dated 1991)
Where a SMILES comes first, the peptide text is derived from it. [ ]: non-standard residue; d: D form. The star is where a group is joined. ξ: configuration not given here. Cbz = O=C(OCc1ccccc1)*; ξP = O=C(O)C1CCCN1

Tests used:
[1] = biological target: T1, Flavobacterium meningosepticum PED (Elizabethkingia meningoseptica, UniProt P27028); test: Prolyl endopeptidase inhibition assay (Flavobacterium enzyme, Z-Gly-Pro-pNA substrate); assay type: biochemical; conditions: pre-incubated 30 minutes at 30° C., pH 7.0
T1 construct: purchased Seikagaku Kogyo Co. Ltd
T1 sequence (P27028 21-705): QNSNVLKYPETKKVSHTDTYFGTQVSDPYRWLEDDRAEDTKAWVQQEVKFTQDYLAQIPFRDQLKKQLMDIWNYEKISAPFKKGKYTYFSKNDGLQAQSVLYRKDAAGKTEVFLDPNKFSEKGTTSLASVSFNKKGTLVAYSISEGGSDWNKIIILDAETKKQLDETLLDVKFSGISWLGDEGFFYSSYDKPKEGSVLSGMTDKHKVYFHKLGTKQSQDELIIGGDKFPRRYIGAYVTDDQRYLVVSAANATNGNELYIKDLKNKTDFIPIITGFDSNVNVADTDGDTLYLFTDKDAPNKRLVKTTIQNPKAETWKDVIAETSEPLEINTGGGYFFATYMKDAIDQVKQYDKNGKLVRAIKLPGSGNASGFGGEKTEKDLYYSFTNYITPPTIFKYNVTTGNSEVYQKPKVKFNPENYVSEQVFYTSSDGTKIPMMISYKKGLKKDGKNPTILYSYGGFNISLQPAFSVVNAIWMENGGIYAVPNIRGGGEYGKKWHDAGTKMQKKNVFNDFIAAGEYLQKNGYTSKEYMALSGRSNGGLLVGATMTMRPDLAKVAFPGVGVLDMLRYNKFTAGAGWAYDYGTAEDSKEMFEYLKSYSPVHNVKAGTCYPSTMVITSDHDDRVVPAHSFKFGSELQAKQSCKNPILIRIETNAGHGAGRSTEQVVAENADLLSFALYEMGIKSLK
Procedure: (§1) Two enzymes were used: Flavobacterial enzyme for the screening and the isolation study and partially purified rabbit brain enzyme for in vitro evaluation. Ten μl of Flavobacterium meningosepticum PED,^10, 11 (Seikagaku Kogyo Co. Ltd., 0.5 unit/ml in 50 mM phosphate buffer, pH 7.0) or rabbit brain PED partially purified from the whole brain homogenate^12, 13.5 μl of a test sample and 86.5 μl of 100 mM phosphate buffer (pH 7.0) were mixed in a well of a 96-well microplate and pre-incubated for about 30 minutes at about 30° C. The reaction was started by addition of 25 μl of 2 mM carbobenzyloxyglycyl-prolyl-p-nitroanilide (Z-Gly-Pro-pNA) in 40% dioxane-100 mM phosphate buffer, pH 7.0. After about 5 minute-incubation at about 30° C., the amount of released p-nitroaniline was determined colorimetrically with a microplate autoreader (Titertek Multiskan® MMC) at 414 nm. For control, the reaction buffer was added to the reaction mixture instead of the test sample. The percentage of inhibition was calculated by the following equation: [formula]

[2] = biological target: T2, rabbit brain PED (Oryctolagus cuniculus, UniProt A0A5F9CCV6); test: Prolyl endopeptidase inhibition assay (partially purified rabbit brain enzyme, Z-Gly-Pro-pNA substrate); assay type: biochemical; conditions: pre-incubated 30 minutes at 30° C., pH 7.0
T2 construct: rabbit brain PED partially purified from the whole brain homogenate; from tissue; host or cells: rabbit whole brain homogenate
T2 sequence (A0A5F9CCV6 1-707): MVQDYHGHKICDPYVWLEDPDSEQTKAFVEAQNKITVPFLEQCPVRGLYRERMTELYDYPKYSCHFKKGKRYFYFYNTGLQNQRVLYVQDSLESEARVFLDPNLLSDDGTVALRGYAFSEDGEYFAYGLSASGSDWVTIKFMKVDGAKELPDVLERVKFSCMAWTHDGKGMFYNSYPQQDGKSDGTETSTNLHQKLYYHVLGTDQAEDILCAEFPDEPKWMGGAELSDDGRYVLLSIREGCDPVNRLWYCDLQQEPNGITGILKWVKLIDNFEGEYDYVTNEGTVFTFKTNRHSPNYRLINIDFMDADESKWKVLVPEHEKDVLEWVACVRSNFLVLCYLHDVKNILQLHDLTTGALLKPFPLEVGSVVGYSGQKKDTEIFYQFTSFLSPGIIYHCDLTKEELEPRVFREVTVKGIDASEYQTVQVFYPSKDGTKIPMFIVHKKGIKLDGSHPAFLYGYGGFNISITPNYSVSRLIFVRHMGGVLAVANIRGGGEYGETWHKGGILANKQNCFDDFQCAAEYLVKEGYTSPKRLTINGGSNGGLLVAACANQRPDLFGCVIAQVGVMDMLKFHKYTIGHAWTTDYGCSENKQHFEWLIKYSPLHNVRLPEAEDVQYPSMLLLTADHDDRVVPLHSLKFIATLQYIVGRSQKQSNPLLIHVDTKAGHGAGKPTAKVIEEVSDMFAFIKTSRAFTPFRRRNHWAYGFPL
Procedure: as §1

[3] = Solubility (physico-chemical properties); assay type: physicochemical; conditions: for Solubility: Table 3

| PED inhibitory activity IC50, Flavobacterium [1] | PED inhibitory activity IC50, Rabbit brain [2] | Solubility [3] | Solubility in dimethyl sulfoxide [3] | Solubility in other organic solvents and water [3] | Structure (SMILES) |
| --- | --- | --- | --- | --- | --- |
| 3.7 ng/mL | 85 ng/mL | Soluble in DMSO | soluble | practically insoluble | CC(C)CC/C=C/C(=O)NC1CCCNC(=O)C(CC(C)C)NC(=O)C(=O)C(C)NC1=O (stereo not drawn) [BU-4164E A] |
| 2.1 ng/mL | 31 ng/mL | Soluble in DMSO | soluble | practically insoluble | CCC(C)CC/C=C/C(=O)NC1CCCNC(=O)C(CC(C)C)NC(=O)C(=O)C(C)NC1=O (stereo not drawn) [BU-4164E B] |
| 3.6 ng/mL | 16 ng/mL | – | – | – | CC(C)[C@H](NC(=O)OCc1ccccc1)C(=O)N1CCCC1C=O (stereo partly drawn) [Z-Val-prolinal, reference compound] (Cbz-Val-[ξP]-aldehyde) |
